From patent US11192877B2, “3-(5-hydroxy-1-oxoisoindolin-2-yl)piperidine-2,6-dione derivatives and uses thereof” (Novartis AG, priority 2018, dated 2021)
Read-outs that look alike come from different tables or passages of the source.

Target: IKZF2 (Helios) (Homo sapiens, UniProt Q96SW2+Q9UKS7)
Assay: Prolabel quantification of IKZF2 protein levels in 293GT cells
Format: cell-based
Details: 24 h, read-out: IKZF2 % protein reduction at 10 μM, 24 h
[1] = Pro-label assay, 293GT cells, 10 μM

Sequence of IKZF2 (Helios) (Q9UKS7 whole entry): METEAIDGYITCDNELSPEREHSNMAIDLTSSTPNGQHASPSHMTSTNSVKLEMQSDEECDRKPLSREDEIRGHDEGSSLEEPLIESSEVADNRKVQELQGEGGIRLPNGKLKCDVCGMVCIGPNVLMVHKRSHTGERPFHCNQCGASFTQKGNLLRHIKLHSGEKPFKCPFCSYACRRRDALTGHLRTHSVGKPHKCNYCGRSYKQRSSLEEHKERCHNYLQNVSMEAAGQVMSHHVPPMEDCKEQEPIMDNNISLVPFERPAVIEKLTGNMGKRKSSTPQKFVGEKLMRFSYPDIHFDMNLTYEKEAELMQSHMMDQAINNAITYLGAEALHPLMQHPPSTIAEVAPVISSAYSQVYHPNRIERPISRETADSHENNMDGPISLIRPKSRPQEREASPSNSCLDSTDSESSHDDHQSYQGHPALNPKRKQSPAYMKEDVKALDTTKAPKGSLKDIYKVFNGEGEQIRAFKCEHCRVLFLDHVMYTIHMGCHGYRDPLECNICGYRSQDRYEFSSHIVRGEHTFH
Sequence of IKZF2 (Helios) (Q96SW2 whole entry): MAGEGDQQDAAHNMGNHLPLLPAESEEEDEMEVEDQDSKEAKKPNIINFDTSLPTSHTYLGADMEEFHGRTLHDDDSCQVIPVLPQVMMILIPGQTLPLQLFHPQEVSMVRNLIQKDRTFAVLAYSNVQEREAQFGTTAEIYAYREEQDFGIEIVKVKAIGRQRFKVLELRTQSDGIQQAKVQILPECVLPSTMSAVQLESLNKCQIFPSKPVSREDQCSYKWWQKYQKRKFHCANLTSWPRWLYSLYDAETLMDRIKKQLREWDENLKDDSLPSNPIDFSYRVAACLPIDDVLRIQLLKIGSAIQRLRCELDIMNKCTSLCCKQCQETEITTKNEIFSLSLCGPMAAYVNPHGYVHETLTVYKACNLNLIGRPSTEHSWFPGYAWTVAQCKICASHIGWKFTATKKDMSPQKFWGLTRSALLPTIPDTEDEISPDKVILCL
Sequence of IKZF2 (Helios) (Q16531 whole entry partner): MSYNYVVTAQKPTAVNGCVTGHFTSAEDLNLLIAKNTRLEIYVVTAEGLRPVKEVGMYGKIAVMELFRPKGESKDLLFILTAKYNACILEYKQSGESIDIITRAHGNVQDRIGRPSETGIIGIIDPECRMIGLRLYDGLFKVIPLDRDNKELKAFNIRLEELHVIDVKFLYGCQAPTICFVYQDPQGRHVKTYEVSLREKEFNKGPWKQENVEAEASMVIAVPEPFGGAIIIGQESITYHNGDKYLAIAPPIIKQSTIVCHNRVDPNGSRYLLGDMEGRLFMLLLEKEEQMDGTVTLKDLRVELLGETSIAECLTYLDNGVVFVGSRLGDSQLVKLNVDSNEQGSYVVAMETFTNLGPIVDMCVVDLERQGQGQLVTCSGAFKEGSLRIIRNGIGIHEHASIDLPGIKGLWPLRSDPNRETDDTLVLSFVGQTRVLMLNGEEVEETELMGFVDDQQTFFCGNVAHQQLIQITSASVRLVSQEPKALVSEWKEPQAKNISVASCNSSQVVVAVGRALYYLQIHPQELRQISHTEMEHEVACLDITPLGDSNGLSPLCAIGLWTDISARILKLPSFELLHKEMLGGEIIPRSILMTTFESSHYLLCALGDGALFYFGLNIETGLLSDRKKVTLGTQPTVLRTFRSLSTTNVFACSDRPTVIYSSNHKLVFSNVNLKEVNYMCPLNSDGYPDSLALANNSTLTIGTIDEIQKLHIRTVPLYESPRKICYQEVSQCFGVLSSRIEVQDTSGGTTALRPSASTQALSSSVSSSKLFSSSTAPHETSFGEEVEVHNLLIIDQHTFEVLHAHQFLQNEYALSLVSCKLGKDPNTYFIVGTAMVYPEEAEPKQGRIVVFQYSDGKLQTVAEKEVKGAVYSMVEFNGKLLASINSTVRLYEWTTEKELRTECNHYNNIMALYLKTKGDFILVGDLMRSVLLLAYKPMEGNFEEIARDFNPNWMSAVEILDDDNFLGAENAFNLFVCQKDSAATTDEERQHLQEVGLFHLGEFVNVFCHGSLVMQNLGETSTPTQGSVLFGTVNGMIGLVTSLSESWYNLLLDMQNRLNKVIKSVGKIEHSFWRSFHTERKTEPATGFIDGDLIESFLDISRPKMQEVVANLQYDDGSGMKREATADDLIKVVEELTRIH

Row | Structure (SMILES) | IKZF2 % protein reduction at 10 µM [1] [%] | IKZF2 % protein reduction at 10 µM [%]
1 | CO[C@H]1CC[C@@H](CN[C@H]2CCC[C@@H]2Oc2ccc3c(c2)CN(C2CCC(=O)NC2=O)C3=O)CC1 (stereo partly drawn) [I-191, 3-(5-(((1S,2S)-2-((((1s,4R)-4-methoxycyclohexyl)methyl)amino)cyclopentyl)oxy)-1-oxoisoindolin-2-yl)piperidine-2,6-dione] | 83 | 
2 | O=C1CCC(N2Cc3cc(O[C@H]4CCC[C@@H]4NCC4CC(F)(F)C4)ccc3C2=O)C(=O)N1 (stereo partly drawn) [I-194, 3-(5-(((1S,2S)-2-(((3,3-difluorocyclobutyl)methyl)amino)cyclopentyl)oxy)-1-oxoisoindolin-2-yl)piperidine-2,6-dione] | 83 | 
3 | O=C1CCC(N2Cc3cc(O[C@H]4CCC[C@@H]4N4CCC(OC(F)F)CC4)ccc3C2=O)C(=O)N1 (stereo partly drawn) [I-195, 3-(5-(((1S,2S)-2-(4-(difluoromethoxy)piperidin-1-yl)cyclopentyl)oxy)-1-oxoisoindolin-2-yl)piperidine-2,6-dione] |  | 85
4 | O=C1CCC(N2Cc3cc(O[C@H]4CCC[C@@H]4N4Cc5ccncc5C4)ccc3C2=O)C(=O)N1 (stereo partly drawn) [I-196, 3-(5-(((1S,2S)-2-(1,3-dihydro-2H-pyrrolo[3,4-c]pyridin-2-yl)cyclopentyl)oxy)-1-oxoisoindolin-2-yl)piperidine-2,6-dione] | 68 | 
5 | N[C@H]1c2ccccc2C[C@@H]1Oc1ccc2c(c1)CN(C1CCC(=O)NC1=O)C2=O (stereo partly drawn) [I-197, 3-(5-(((1S,2S)-1-amino-2,3-dihydro-1H-inden-2-yl)oxy)-1-oxoisoindolin-2-yl)piperidine-2,6-dione] |  | 68
6 | CCN[C@H]1c2ccccc2C[C@@H]1Oc1ccc2c(c1)CN(C1CCC(=O)NC1=O)C2=O (stereo partly drawn) [I-198, 3-(5-(((1S,2S)-1-(ethylamino)-2,3-dihydro-1H-inden-2-yl)oxy)-1-oxoisoindolin-2-yl)piperidine-2,6-dione] |  | 67
7 | CCN(CC)[C@H]1c2ccccc2C[C@@H]1Oc1ccc2c(c1)CN(C1CCC(=O)NC1=O)C2=O (stereo partly drawn) [I-199, 3-(5-(((1S,2S)-1-(diethylamino)-2,3-dihydro-1H-inden-2-yl)oxy)-1-oxoisoindolin-2-yl)piperidine-2,6-dione] |  | 71
8 | CCN(C)[C@H]1c2ccccc2C[C@@H]1Oc1ccc2c(c1)CN(C1CCC(=O)NC1=O)C2=O (stereo partly drawn) [I-200, 3-(5-(((1S,2S)-1-(ethyl(methyl)amino)-2,3-dihydro-1H-inden-2-yl)oxy)-1-oxoisoindolin-2-yl)piperidine-2,6-dione] | 71 | 
9 | CN(C)[C@H]1c2ccccc2C[C@@H]1Oc1ccc2c(c1)CN(C1CCC(=O)NC1=O)C2=O (stereo partly drawn) [I-201, 3-(5-(((1S,2S)-1-(dimethylamino)-2,3-dihydro-1H-inden-2-yl)oxy)-1-oxoisoindolin-2-yl)piperidine-2,6-dione] | 46 | 
10 | N[C@H]1CCC[C@@H]1Oc1ccc2c(c1F)CN(C1CCC(=O)NC1=O)C2=O (stereo partly drawn) [I-213, 3-(5-(((1S,2S)-2-aminocyclopentyl)oxy)-4-fluoro-1-oxoisoindolin-2-yl)piperidine-2,6-dione] | 20 | 
11 | CCN(CC)[C@H]1CCC[C@@H]1Oc1ccc2c(c1F)CN(C1CCC(=O)NC1=O)C2=O (stereo partly drawn) [I-214, 3-(5-(((1S,2S)-2-(diethylamino)cyclopentyl)oxy)-4-fluoro-1-oxoisoindolin-2-yl)piperidine-2,6-dione] | 40 | 
12 | N[C@H]1CCC[C@@H]1Oc1cc2c(cc1F)C(=O)N(C1CCC(=O)NC1=O)C2 (stereo partly drawn) [I-215, 3-(5-(((1S,2S)-2-aminocyclopentyl)oxy)-6-fluoro-1-oxoisoindolin-2-yl)piperidine-2,6-dione] | 30 | 
13 | CCN(CC)[C@H]1CCC[C@@H]1Oc1cc2c(cc1F)C(=O)N(C1CCC(=O)NC1=O)C2 (stereo partly drawn) [I-216, 3-(5-(((1S,2S)-2-(diethylamino)cyclopentyl)oxy)-6-fluoro-1-oxoisoindolin-2-yl)piperidine-2,6-dione] | 60 | 
